The values that follow are results of earlier work, collected in patent US5846995A, “Substituted 1, 2, 3, 4-tetrahydro-2-dibenzofuranamines and 2-amino-cyclohepta (6, 7-B) Benzofurans” (priority 1997, dated 1998).

The conditions of this data set: background.

For `CNS(=O)(=O)Cc1ccc2[nH]cc(CCN(C)C)c2c1.O=C(O)CCC(=O)O` [Compound I, 3-[2-(dimethylamino)ethyl]-N-methyl-1H-indole-5-methanesulfonamide butane-1,4-dioate (1:1)], the bioavailability result is “low bioavailability”.
